The subject of test [1] is SH-SY5Y neuronal cells. The test is described as follows: Apoptosis in TNF-α-induced SH-SY5Y cells (cleaved-caspase 3 immunofluorescence). It counts as cell-based. As to conditions: 60 ng/ml TNF-α, 48 hours; YN-011 10, 100, 500 nM; GABA 1, 10, 100 μM; combination 100 μM GABA + 100 nM YN-011. On the procedure: The experimental procedure is as follows: • 1) Digest the SH-SY5Y neuronal cells in a 10 cm culture dish using 0.25% trypsin to prepare a single-cell suspension. Seed the single-cell suspension into a 24-well plate, placing a sterile coverslip in each well. • 2) Place the culture plate in a CO2 incubator and pre-culture overnight at 37° C. with 5% CO2 to allow the cells to adhere. • 3) Using medium containing 5% FBS, treat the cells in each well with 60 ng/ml TNF-α alone or co-treated with 10, 100, or 500 nM YN-011 at 37° C. for 48 hours. […]

Test [2] relates to SH-SY5Y neuronal cells. The test is described as follows: TNF-α-induced apoptosis in SH-SY5Y cells (western blot Bcl-2, cleaved-caspase3). It is filed as cell-based. The note with it: 60 ng/ml TNF-α, 48 hours; YN-011 10, 100, 500 nM; GABA 1, 10, 100 μM; combination 100 μM GABA + 100 nM YN-011. As to the method: The experimental procedure is as follows: • 1) Digest SH-SY5Y neuronal cells in a 10 cm culture dish using 0.25% trypsin and seed them into a 12-well plate. • 2) Place the culture plate in a CO2 incubator for overnight pre-culture (37° C., 5% CO2) to allow cell adhesion. • 3) Using medium containing 5% FBS, treat the cells in each well with 60 ng/ml TNF-α alone or co-treated with 10, 100, or 500 nM YN-011. Incubate the cells at 37° C. for 48 hours. Each drug treatment is performed in three replicate wells. • 4) After 48 hours, discard the supernatant, gently wash the cells once with PBS, and place the cell culture plate on ice. Add 120 μl of RIPA cell lysis buffer (Beyotime P0013B) to each well, including protease and phosphatase inhibitors, and lyse the cells for 15 minutes. • 5) Transfer the cell lysate to a 1.5 ml EP tube and centrifuge at 14,000 rpm for 30 minutes. • 6) Carefully aspirate the supernatant into a new EP tube, add 5× loading buffer containing β-mercaptoethanol, and boil the samples at 100° C. for 10 minutes to denature the proteins. • 7) Perform SDS-PAGE gel electrophoresis with 10 μg of protein loaded per lane. Position the gel vertically against the power rack in the electrophoresis tank, ensuring that the concave side of the gel faces the power rack. Two gels can share one power rack. Fix the gel and power rack in the electrophoresis tank as required. […]
On the technique in general: In western blotting, separated proteins are transferred to a membrane and probed.

Entries after “also recorded” stand apart in the source; their conditions may differ.

Regarding `NCCCC(=O)O` [GABA, γ-aminobutyric acid], the “apoptosis in TNF-α-induced neuronal cells (cleaved-caspase 3 positive cells)” value in the test with SH-SY5Y neuronal cells [1] is recorded as “reduces apoptosis; also recorded: reduction of apoptosis”. Moreover, the “TNF-α-induced apoptosis in SH-SY5Y neuronal cells (western blot)” value with SH-SY5Y neuronal cells [2] is “reduces TNF-α-induced apoptosis; also recorded: reduction of TNF-α-induced apoptosis”.

B1: YN-011: GLP-1 fusion protein of SEQ ID NO: 7: GLP-1 (A8G, G22E, R36G), linker peptide and IgG2/Fc domain (C222S, A330S, P331S) (protein)
chain: HGEGTFTSDVSSYLEEQAAKEFIAWLVKGGGSSGAPPPSGGGGSERKSCVECPPCPAPPVAGPSVFLFPPKPKDTLMISRTPEVTCVVVDVSHEDPEVQFNWYVDGVEVHNAKTKPREEQFNSTFRVVSVLTVVHQDWLNGKEYKCKVSNKGLPSSIEKTISKTKGQPREPQVYTLPPSREEMTKNQVSLTCLVKGFYPSDIAVEWESNGQPENNYKTTPPMLDSDGSFFLYSKLTVDKSRWQQGNVFSCSVMHEALHNHYTQKSLSLSPG
As to B1, in the test with SH-SY5Y neuronal cells [1], the “apoptosis in TNF-α-induced neuronal cells (cleaved-caspase 3 positive cells)” value was “significantly reduces apoptosis; also recorded: reduction of apoptosis”. For the same molecule, the “TNF-α-induced apoptosis in SH-SY5Y neuronal cells (western blot)” value with SH-SY5Y neuronal cells [2] is on record as “significantly reduces TNF-α-induced apoptosis; also recorded: reduction of TNF-α-induced apoptosis”.

These data come from patent US20250376498A1, “FUSION PROTEINS COMPRISING AN IMPROVED GLP-1 RECEPTOR AGONIST AND USES THEREOF” (Guangzhou Innogen Pharmaceutical Group Co., Ltd., priority 2022, published 2025).
